The results in this text go back to patent US20160374370A1, “BEVERAGE COMPRISING FERROUS PICOLINATE” (NESTEC S.A., priority 2013, published 2016).

A short description of the data set: Colour change in iron fortified strawberry fermented milk beverages (CIELAB colorimetry). The class given is physicochemical. The conditions noted are these: for ΔEab* on addition / ΔEab* after heat treatment: colour difference vs beverage with no iron salts, approx. 2.1 mg iron per 100 g; for ΔEab* on addition: fermented milk beverage containing 2.1% strawberry, stirred under argon 20 minutes; for ΔEab* after heat treatment: heat treated at 95° C. for 2 minutes, 2.1% strawberry fermented milk beverage. The protocol: Ferrous picolinate was prepared according to the procedure of U.S. Pat. No. 4,315,927 Example 3. A fermented milk beverage containing 2.1% strawberry was iron fortified by the addition of ferrous sulphate (Dr Paul Lohmann™) (Sample A) or ferrous picolinate (Sample B). The amount of the ferrous salts were chosen to provide approximately 2.1 mg iron per 100 g fermented milk beverage. Each ferrous salt was added to the fermented milk beverage and stirred under argon for 20 minutes. A further sample without iron fortification was also prepared in the same manner. Colour measurements were performed in 1×1 cm polystyrene cuvettes using an X-Rite ColorEye 7000A colorimeter. The colorimeter was set up with a D65 light source, 10 degree observer angle and with specular component included. The colour difference between the beverage with no iron salts and the iron fortified beverages was measured for each ferrous salt and expressed as ΔEab* using the CIELAB colour scale.
The fermented milks were then heat treated at 95° C. for 2 minutes. Colour measurements were performed in the same manner as before. The colour difference between the beverage with no iron salts and the iron fortified beverages was measured for each ferrous salt and expressed as ΔEab* using the CIELAB colour scale.

On to `O=S(=O)([O-])[O-].[Fe+2]` [FeSO4 × H20, ferrous sulphate, reference compound], for which the “ΔEab* on addition” value was 0.84 and the “ΔEab* after heat treatment” value is 2.80.
As for ferrous picolinate, the “ΔEab* on addition” value was found to be 0.36 and the “ΔEab* after heat treatment” value came to 1.66. Moreover, under “both after simple addition of the salts and after heat treatment, compared with ferrous sulphate”, the “colour compared with the beverage with no added iron” value is “closer in colour to the beverage with no added iron than the beverage fortified with ferrous sulphate”.
